In assay [1] the target is T1, human orexin-1 receptor (hOX1R) (Homo sapiens, UniProt O43613).
T1 construct: expressed in transfected cells; host or cells: Chinese hamster ovary (CHO) cells
T1 sequence (O43613 1-425): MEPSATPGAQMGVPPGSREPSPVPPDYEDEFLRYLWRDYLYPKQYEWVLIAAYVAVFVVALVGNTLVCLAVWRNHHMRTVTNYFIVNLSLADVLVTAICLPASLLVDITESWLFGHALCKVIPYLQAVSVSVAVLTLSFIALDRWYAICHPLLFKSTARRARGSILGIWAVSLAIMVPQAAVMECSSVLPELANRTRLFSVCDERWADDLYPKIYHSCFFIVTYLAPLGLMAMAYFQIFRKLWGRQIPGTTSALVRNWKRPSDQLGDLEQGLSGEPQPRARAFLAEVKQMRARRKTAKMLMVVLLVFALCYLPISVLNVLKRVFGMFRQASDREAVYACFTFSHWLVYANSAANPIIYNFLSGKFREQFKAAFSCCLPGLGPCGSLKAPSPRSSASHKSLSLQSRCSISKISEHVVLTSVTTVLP
Briefly: FLIPR Ca2+ Flux Assay, hOX1R. In kind it is cell-based. The following applies: CHO cells expressing hOX1R; agonist Ala-6,12 human orexin-A 70 pM. The text has this:
(§1) The utility of the compounds in accordance with the present invention as orexin receptor OX1R and/or OX2R antagonists may be readily determined without undue experimentation by methodology well known in the art, including the “FLIPR Ca^2+ Flux Assay” (Okumura et al., Biochem. Biophys. Res. Comm. 2001, 280:976-981). Briefly, for intracellular calcium measurements, Chinese hamster ovary (CHO) cells expressing the orexin-1 receptor (e.g., rat or human) or the orexin-2 receptor (e.g., rat or human), are grown in Iscove's modified DMEM containing 2 mM L-glutamine, […], 1% hypoxanthine-thymidine supplement, 100 U/ml penicillin, 100 μg/ml streptomycin and 10% heat-inactivated fetal calf serum (FCS). The cells are seeded at approximately 20,000 cells per well into 384-well clear bottom sterile plates coated with poly-D-lysine. The seeded plates are incubated overnight at 37° C. and 5% CO2. Human ala-6,12 orexin-A can be used as the agonist and prepared as a 1 mM stock solution in 1% bovine serum albumin (BSA) and diluted in assay buffer (HBSS containing 20 mM HEPES, 0.1% BSA and 2.5 mM probenecid, pH7.4) for use in the assay at a final concentration of 70 pM. Test compounds are prepared as 10 mM stock solution in DMSO, then diluted in 384-well plates, first in DMSO, then in assay buffer. On the day of the assay, cells are washed 3 times with 100 μl assay buffer and then incubated for 60 minutes (37° C., 5% CO2) in 60 μl assay buffer containing 1 μM Fluo-4AM ester, 0.02% pluronic acid, and 1% BSA. The dye loading solution is then aspirated and cells are washed 3 times with 100 μl assay buffer. 30 μl of that same buffer is left in each well. Within the Fluorescent Imaging Plate Reader (FLIPR, Molecular Devices), test compounds are added to the plate in a volume of 25 μl, incubated for 5 minutes, and then 25 μl of agonist is added. Fluorescence is measured for each well at 1 second intervals for 5 minutes, and the height of each fluorescence peak is compared to the height of the fluorescence peak induced by 70 pM of agonist ala-6,12 orexin-A with buffer in place of test compound. IC50 value for the test compound is determined to be the concentration of compound needed to inhibit 50% of the agonist response. Alternatively, compound potency can be assessed using a radioligand binding assay (described in Bergman et. al. Bioorg. Med. Chem. Lett. 2008, 18:1425-1430) in which the inhibition constant (Ki) is determined in membranes prepared from CHO cells expressing either the OX1 or OX2 receptor. The intrinsic orexin receptor antagonist activity of a compound of the present invention may be determined by these assays.
(§2) Chinese hamster ovary (CHO) cells expressing the human orexin-1 receptor (hOX1R) or the human orexin-2 receptor (hOX2R) were grown in Iscove's modified DMEM containing 2 mM L-glutamine, […], 1% hypoxanthine-thymidine supplement, 100 U/ml penicillin, 100 μg/ml streptomycin and 10% heat-inactivated fetal calf serum (FCS). The cells were seeded at −20,000 cells/well into Becton-Dickinson black 384-well clear bottom sterile plates coated with poly-D-lysine. All reagents were from GIBCO-Invitrogen Corp. The seeded plates were incubated overnight at 37° C. and 5% CO2. Ala-6,12 human orexin-A, used as the agonist, was prepared as a 1 mM stock solution in 1% bovine serum albumin (BSA) and diluted in assay buffer (HBSS containing 20 mM HEPES, 0.1% BSA and 2.5 mM probenecid, pH7.4) for use in the assay at a final concentration of 70 pM. Test compounds were prepared as 10 mM stock solution in DMSO, then diluted in 384-well plates, first in DMSO, then assay buffer.
(§3) On the day of the assay, cells were washed 3× with 100 μl assay buffer and then incubated for 60 minutes (37° C., 5% CO2) in 60 μl assay buffer containing 1 μM Fluo-4AM ester, 0.02% pluronic acid, and 1% BSA. The dye loading solution was then aspirated and cells were washed 3× with 100 μl assay buffer. 30 μl of that same buffer was left in each well. […]
(A change in cytosolic calcium serves as a functional read-out for many receptors and channels.)

For assay [2], the target named is T2, human orexin-2 receptor (hOX2R) (Homo sapiens, UniProt O43614).
T2 construct: expressed in transfected cells; host or cells: Chinese hamster ovary (CHO) cells
T2 sequence (O43614 1-444): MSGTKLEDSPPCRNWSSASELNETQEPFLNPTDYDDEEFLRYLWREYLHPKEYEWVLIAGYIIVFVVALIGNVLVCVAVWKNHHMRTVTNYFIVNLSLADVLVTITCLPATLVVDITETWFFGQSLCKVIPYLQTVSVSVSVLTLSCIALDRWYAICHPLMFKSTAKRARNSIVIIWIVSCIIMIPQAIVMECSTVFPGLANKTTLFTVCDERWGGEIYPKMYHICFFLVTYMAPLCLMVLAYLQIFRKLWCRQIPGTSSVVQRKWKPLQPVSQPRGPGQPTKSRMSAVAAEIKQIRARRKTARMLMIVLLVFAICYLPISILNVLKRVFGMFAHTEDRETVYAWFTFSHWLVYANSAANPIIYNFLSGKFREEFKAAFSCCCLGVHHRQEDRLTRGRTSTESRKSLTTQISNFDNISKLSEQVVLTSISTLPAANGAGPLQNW
Description: FLIPR Ca2+ Flux Assay, hOX2R. The assay is classed as cell-based. As to conditions: CHO cells expressing hOX2R; agonist Ala-6,12 human orexin-A 70 pM.
From the text: as §1, §2, §3

The structures appear in SMILES notation.

The term IC50 denotes the concentration needed to halve the response being measured. High values mean weaker potency in that assay, low ones greater potency in that assay. For the molecule `C[C@@H]1CC[C@@H](Oc2nccc(C(F)(F)F)c2F)CN1C(=O)c1ccccc1-n1nccn1` [Example 1, 3-Fluoro-2-{[(3R,6R)-6-methyl-1-{[2-(2H-1,2,3-triazol-2-yl)phenyl]carbonyl}piperidin-3-yl]oxy}-4-(trifluoromethyl)pyridine], the figures for the IC50 in assay [1] and in assay [2] were 839 nM and 38.5 nM, respectively. As to `COc1ccc(C(=O)N2C[C@H](Oc3nccc(C(F)(F)F)c3F)CC[C@H]2C)c(-n2nccn2)n1` [Example 2, 3-fluoro-2-{[(3R,6R)-1-{[6-methoxy-2-(2H-1,2,3-triazol-2-yl)pyridin-3-yl]carbonyl}-6-methylpiperidin-3-yl]oxy}-4-(trifluoromethyl)pyridine], the IC50 in assay [2] came to 105 nM. `C[C@@H]1CC[C@@H](Oc2cc(C(F)(F)F)ccn2)CN1C(=O)c1ccccc1-n1nccn1` [Example 3, 2-{[(3R,6R)-6-methyl-1-{[2-(2H-1,2,3-triazol-2-yl)phenyl]carbonyl}piperidin-3-yl]oxy}-4-(trifluoromethyl)pyridine]: the concentration for half-maximal inhibition (IC50) in assay [1] came out at 377 nM; in assay [2], 17.8 nM. As to `Cc1c(I)ccnc1O[C@@H]1CC[C@@H](C)N(C(=O)c2ccccc2-n2nccn2)C1` [Example 4, 4-iodo-3-methyl-2-{[(3R,6R)-6-methyl-1-{[2-(2H-1,2,3-triazol-2-yl)phenyl]carbonyl}piperidin-3-yl]oxy}pyridine], the half-maximal inhibitory concentration (IC50) in assay [1] came out at 118 nM; in assay [2], 8.8 nM. As to `C[C@@H]1CC[C@@H](Oc2cc(I)ccn2)CN1C(=O)c1ccccc1-n1nccn1` [Example 5, 4-iodo-2-{[(3R,6R)-6-methyl-1-{[2-(2H-1,2,3-triazol-2-yl)phenyl]carbonyl}piperidin-3-yl]oxy}pyridine], the IC50 came out at 414 nM in assay [1] and 7.3 nM in assay [2]. `C[C@@H]1CC[C@@H](Oc2cc(C(F)(F)F)ccn2)CN1C(=O)c1ccccc1-n1ncnn1` [Example 6, 2-{[(3R,6R)-6-Methyl-1-{[2-(2H-tetrazol-2-yl)phenyl]carbonyl}piperidin-3-yl]oxy}-4-(trifluoromethyl)pyridine]: the IC50 in assay [1] is 828 nM; in assay [2], 10 nM. As for `COc1ccc(C(=O)N2C[C@H](Oc3cc(Cl)ccn3)CC[C@H]2C)c(-n2nccn2)n1` [Example 7, 3-({(2R,5R)-5-[(4-chloropyridin-2-yl)oxy]-2-methylpiperidin-1-yl}carbonyl)-6-methoxy-2-(2H-1,2,3-triazol-2-yl)pyridine], in assay [2], the IC50 was determined as 85.7 nM. For `COc1ccc(C(=O)N2C[C@H](Oc3nccc(I)c3OC)CC[C@H]2C)c(-n2nccn2)n1` [Example 8, 4-iodo-3-methoxy-2-{[(3R,6R)-1-{[6-methoxy-2-(2H-1,2,3-triazol-2-yl)pyridin-3-yl]carbonyl}-6-methylpiperidin-3-yl]oxy}pyridine], the concentration for half-maximal inhibition (IC50) in assay [1] was determined as 2500 nM; in assay [2], 49.3 nM.

In assay [2], `COc1ccc(C(=O)N2C[C@H](Oc3cc(Br)ccn3)CC[C@H]2C)c(-n2nccn2)n1` [Example 9, 3-({(2R,5R)-5-[(4-bromopyridin-2-yl)oxy]-2-methylpiperidin-1-yl}carbonyl)-6-methoxy-2-(2H-1,2,3-triazol-2-yl)pyridine] came in with a 50% inhibitory concentration (IC50) of 36.3 nM. For `C[C@@H]1CC[C@@H](Oc2cc(F)ccn2)CN1C(=O)c1ccccc1-n1ncnn1` [Example 10, 4-fluoro-2-{[(3R,6R)-6-methyl-1-{[2-(2H-tetrazol-2-yl)phenyl]carbonyl}piperidin-3-yl]oxy}pyridine], the half-maximal inhibitory concentration (IC50) came to 3850 nM in assay [1] and 55 nM in assay [2].

For the molecule `C[C@@H]1CC[C@@H](Oc2cc(Cl)ccn2)CN1C(=O)c1ccccc1-n1ncnn1` [Example 11], the concentration for half-maximal inhibition (IC50) in assay [1] turned out to be 917 nM; in assay [2] it was 10 nM. On to `C[C@@H]1CC[C@@H](Oc2cc(Br)ccn2)CN1C(=O)c1ccccc1-n1ncnn1` [Example 12, 4-bromo-2-{[(3R,6R)-6-methyl-1-{[2-(2H-tetrazol-2-yl)phenyl]carbonyl}piperidin-3-yl]oxy}pyridine], for which the 50% inhibitory concentration (IC50) in assay [1] is 986 nM; in assay [2], 10 nM.

In assay [2], `COc1ccc(C(=O)N2C[C@H](Oc3cc(F)ccn3)CC[C@H]2C)c(-n2nccn2)n1` [Example 13, 3-({(2R,5R)-5-[(4-fluoropyridin-2-yl)oxy]-2-methylpiperidin-1-yl}carbonyl)-6-methoxy-2-(2H-1,2,3-triazol-2-yl)pyridine] yielded a 50% inhibitory concentration (IC50) of 467 nM. The molecule `COc1ccc(C(=O)N2C[C@H](Oc3nccc(I)c3OC)CC[C@H]2C)c(-c2ncccn2)n1` [Example 14, 2-[3-({(2R,5R)-5-[(4-Iodo-3-methoxypyridin-2-yl)oxy]-2-methylpiperidin-1-yl}carbonyl)-6-methoxypyridin-2-yl]pyrimidine] came in with a half-inhibitory concentration (IC50) in assay [2] of 78.7 nM. Take `C[C@@H]1CC[C@@H](Oc2cc(Cl)ccn2)CN1C(=O)c1ccccc1-n1nccn1` [Example 15, 4-Chloro-2-{[(3R,6R)-6-methyl-1-{[2-(2H-1,2,3-triazol-2-yl)phenyl]carbonyl}piperidin-3-yl]oxy}pyridine]: the figures for the concentration for half-maximal inhibition (IC50) in assay [1] and in assay [2] were 548 nM and 10.8 nM, respectively. The matching figures for `C[C@@H]1CC[C@@H](Oc2cc(F)ccn2)CN1C(=O)c1ccccc1-n1nccn1` [Example 16, 4-fluoro-2-{[(3R,6R)-6-methyl-1-{[2-(2H-1,2,3-triazol-2-yl)phenyl]carbonyl}piperidin-3-yl]oxy}pyridine]: 2310 nM and 34 nM. The matching figures for `C[C@@H]1CC[C@@H](Oc2cc(Br)ccn2)CN1C(=O)c1ccccc1-n1nccn1` [Example 17, 4-bromo-2-{[(3R,6R)-6-methyl-1-{[2-(2H-1,2,3-triazol-2-yl)phenyl]carbonyl}piperidin-3-yl]oxy}pyridine]: 179 nM and 3.8 nM. The molecule `C[C@@H]1CC[C@@H](Oc2cccc(F)c2)CN1C(=O)c1ccccc1-n1nccn1` [Example 18, (2R,5R)-5-(3-fluorophenoxy)-2-methyl-1-{[2-(2H-1,2,3-triazol-2-yl)phenyl]carbonyl}piperidine] returned an IC50 in assay [2] of 132 nM.
